Test results from ChEMBL document CHEMBL5244259, “Azithromycin: The First Broad-spectrum Therapeutic” (Eur J Med Chem, 2020).

What was measured:
SARS-CoV-2 = assay: Antiviral activity against SARS-COV-2 infected in African green monkey Vero cells assessed as reduction in virus induced cytopathic effect preincubated with cells for 15 mins followed by viral infection and measured after 2 days by RT-PCR analysis; assay type: functional, organism-based; conditions: Severe acute respiratory syndrome coronavirus 2, Vero
[1] = Cytotoxicity against African green monkey Vero cells by Celltiter blue assay; assay type: toxicity, cell-based; conditions: chlorocebus sabaeus
[2] = Selectivity index, ratio of CC50 for African green monkey Vero cells to EC50 for SARS-COV-2; assay type: toxicity; conditions: read-out: Ratio CC50/EC50
Zika virus = assay: Antiviral activity against Zika virus GZ01/2016 infected in African green monkey Vero cells assessed as reduction in virus induced cytopathic effect preincubated with cells for 12 hrs followed by viral infection and measured after 48 hrs by qRT-PCR analysis; assay type: functional, organism-based; conditions: GZ01/2016, Vero
[3] = Antiproliferative against African green monkey Vero cells incubated for 40 hrs by Celltiter assay; assay type: toxicity, cell-based; conditions: chlorocebus sabaeus
[4] = Selectivity index, ratio of CC50 for African green monkey Vero cells to EC50 for Zika virus GZ01/2016 infected in African green monkey Vero cells; assay type: toxicity; conditions: read-out: Ratio CC50/EC50
dengue virus type 2 = assay: Antiviral activity against Dengue virus 2 infected in African green monkey Vero cells assessed as reduction in virus induced cytopathic effect preincubated with cells for 12 hrs followed by viral infection and measured after 48 hrs by qRT-PCR analysis; assay type: functional, organism-based
[5] = Selectivity index, ratio of CC50 for African green monkey Vero cells to EC50 for Dengue virus 2 infected in African green monkey Vero cells; assay type: toxicity; conditions: read-out: Ratio CC50/EC50
[6] = Antiproliferative against African green monkey Vero cells; assay type: toxicity, cell-based; conditions: chlorocebus sabaeus
Zaire ebolavirus = assay: Antiviral activity against Zaire ebolavirus infected in African green monkey Vero cells assessed as reduction in virus induced cytopathic effect preincubated with cells for 1 hr followed by viral infection and measured after 48 hrs; assay type: functional, organism-based
[7] = Cytotoxicity against African green monkey Vero cells by MTT assay; assay type: toxicity, cell-based; conditions: chlorocebus sabaeus
[8] = Selectivity index, ratio of CC50 for African green monkey Vero cells to EC50 for Zaire ebolavirus infected in African green monkey Vero cells; assay type: toxicity; conditions: read-out: Ratio CC50/EC50
Influenza A virus = assay: Antiviral activity against Influenza A virus A/California/7/2009(H1N1) strain infected in A549 cells assessed as reduction in viral infection incubated for 48 hrs by qPCR analysis; assay type: functional, organism-based; conditions: A549, 48 h
A549 = assay: Cytotoxicity against human A549 cells by MTT assay; assay type: functional
[9] = Selectivity ratio of CC50 for human A549 cells to EC50 for Influenza A virus A/California/7/2009(H1N1) strain infected in A549 cells; assay type: toxicity, cell-based; conditions: read-out: Ratio CC50/EC50

**Q.** With `CC[C@H]1OC(=O)[C@H](C)[C@@H](O[C@H]2C[C@@](C)(OC)[C@@H](O)[C@H](C)O2)[C@H](C)[C@@H](O[C@@H]2O[C@H](C)C[C@H](N(C)C)[C@H]2O)[C@](C)(O)C[C@@H](C)CN(C)[C@H](C)[C@@H](O)[C@]1(C)O` [AZITHROMYCIN] as the molecule, how does the EC50 (SARS-CoV-2) read?
**A.** The EC50 was 2.12 µM.

**Q.** And the EC90 (SARS-CoV-2; 48.25 h, time 2895 min)?
**A.** Its EC90 is 8.65 µM.

**Q.** And the CC50 [1]?
**A.** The CC50 was greater than 40 µM.

**Q.** And the selectivity ratio [2]?
**A.** Its selectivity ratio is greater than 19.

**Q.** What about the EC50 (Zika virus) of the same molecule?
**A.** The EC50 was 6.59 µM.

**Q.** What about the CC50 at 40 h [3] of the same molecule?
**A.** The CC50 at 40 h was 810 µM.

**Q.** What about the selectivity ratio [4] of the same molecule?
**A.** The selectivity ratio was 123.

**Q.** What about the EC50 (dengue virus type 2) of the same molecule?
**A.** Its EC50 is 3.71 µM.

**Q.** What about the selectivity ratio [5] of the same molecule?
**A.** The selectivity ratio was 218.

**Q.** And the CC50 [6]?
**A.** Its CC50 is 810 µM.

**Q.** What about the EC50 (Zaire ebolavirus) of the same molecule?
**A.** The EC50 was 5.1 µM.

**Q.** And the CC50 [7]?
**A.** The CC50 was greater than 130 µM.

**Q.** What about the selectivity ratio [8] of the same molecule?
**A.** The selectivity ratio was greater than 25.

**Q.** What about the EC50 (Influenza A virus) of the same molecule?
**A.** The EC50 was 68 µM.

**Q.** And the CC50 (A549)?
**A.** Its CC50 is greater than 600 µM.

**Q.** And the selectivity ratio [9]?
**A.** Its selectivity ratio is greater than 8.8.
